In patent publication US12319655B2, “RAF kinase inhibitors and methods of use thereof” (Deciphera Pharmaceuticals, LLC, priority 2021, dated 2025):
pIC50: −log10 of the molar value.

What was measured:
[1] = molecular target: B-Raf (V600E) (SEQ. ID NO: 4) kinase (Homo sapiens (Human), UniProt P15056, V600E); assay: Biochemical Assay for B-Raf (V600E) (1); conditions: Table J, BRAF V600E, assay version (1); read-out: BRAF VE (1) IC50
Summary of the method: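 Serially diluted compounds tested against 0.03 nM enzyme with 30.1 nM MEK substrate and 1 mM ATP (Tris pH 7.5, 15 mM MgCl2), ATP use coupled to NADH loss via PK/LDH. A340 monitored continuously 6 h, 30 °C; IC50 fitted (four-parameter) from the 3–4 h rate versus no-compound and known-inhibitor controls.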

H2405 cells = assay: H2405 Cell Proliferation Assay (1); assay type: cell-based; conditions: Homo sapiens, NCI-H2405
Method: H2405 Cell Proliferation Assay (1)
H2405 cells (catalog #CRL-5994) are obtained from the American Type Culture Collect (ATTC, Manassas, VA). Briefly, cells were grown in RPMI 1640 supplemented with 5% characterized fetal bovine serum (Invitrogen, Carlsbad, CA) and 1% Penicillin/Streptomycin/L-Glutamine at 37° C., 5% CO2, and 95% humidity. Cells are expanded until reaching 70-95% confluency at which point they are sub-cultured or harvested for assay use. A serial dilution of test compound is dispensed into a 96-well black clear bottom plate in triplicate. Three thousand cells are added per well in 200 μL complete growth medium in the 96-well plate. Plates are incubated for 67-72 h at 37° C., 5% CO2, and 95% humidity. At the end of the incubation, 40 μL of a 440 μM solution of resazurin (Sigma, St. Louis, MO) in PBS is added to each well of the plate and plates are incubated for an additional 5-6 h at 37° C., 5% CO2, and 95% humidity. Plates are read on a Synergy2 or equivalent reader (Biotek, Winooski VT) using an excitation of 540 nm and an emission of 600 nm. Data is analyzed using Prism software (GraphPad, San Diego, CA) to calculate IC50 values.

[2] = molecular target: B-Raf kinase (SEQ. ID NO: 2) (Homo sapiens (Human), UniProt P15056); assay: Biochemical Assay for B-Raf (1); conditions: Table J, assay version (1); read-out: BRAF (1) IC50
Summary of the method: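 IC50 derived by four-parameter sigmoidal fit of percent inhibition, normalised to uninhibited and reference-inhibitor controls, using reaction rates over 4–5 h. Coupled spectrophotometric readout (NADH loss at 340 nm, 6 h, 30° C.); 1 mM ATP, 30.1 nM MEK, 0.13 nM B-Raf, pH 7.5 Tris buffer, 1% DMSO.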

WM3928 cells = assay: WM3928 Cell Proliferation Assay (1); assay type: cell-based
Summary of the method: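 IC50 was derived from resazurin fluorescence (ex 540, em 600 nm) after a 6–7 h dye incubation. Before that, cells had 67–72 h of compound exposure at 37 °C, 5% CO2.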

Chain of B-Raf (V600E) (SEQ. ID NO: 4) kinase (P15056 416-766 V600E): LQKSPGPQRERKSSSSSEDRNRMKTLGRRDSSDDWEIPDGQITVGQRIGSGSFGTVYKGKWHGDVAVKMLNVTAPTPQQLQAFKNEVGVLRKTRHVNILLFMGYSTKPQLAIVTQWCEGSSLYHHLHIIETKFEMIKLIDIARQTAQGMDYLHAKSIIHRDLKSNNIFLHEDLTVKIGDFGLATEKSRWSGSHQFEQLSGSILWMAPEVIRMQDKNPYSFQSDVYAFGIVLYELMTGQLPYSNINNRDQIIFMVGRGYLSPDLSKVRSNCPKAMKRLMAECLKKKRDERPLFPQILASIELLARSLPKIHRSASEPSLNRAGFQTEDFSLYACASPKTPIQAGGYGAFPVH
Chain of B-Raf kinase (SEQ. ID NO: 2) (P15056 416-766): as the sequence (P15056 416-766 V600E) above, with E185V counted along it

pIC50 [1]	pIC50 (H2405 cells)	pIC50 [2]	SMILES	pIC50 (WM3928 cells)
≥ 7.00	6.30 to 7.00	6.30 to 7.00	CCNC(=O)c1cc(-c2cc(-c3cc(NC(=O)c4ccnc(C(C)(C)C#N)c4)ccc3C)ccn2)ccn1 [Example 266]	–
≥ 7.00	6.30 to 7.00	≥ 7.00	Cc1cc(F)c(NC(=O)c2ccnc(C(F)(F)F)c2)cc1-c1cncc(-c2ccnc(NC(=O)C3CC3)c2)n1 [Example 271]	≥ 7.00
≥ 7.00	≥ 7.00	≥ 7.00	CC(=O)Nc1cc(-c2cc(-c3cc(NC(=O)c4ccnc(C(F)(F)F)c4)ccc3C)cc(N3CCOCC3)n2)ccn1 [Example 15]	–
≥ 7.00	–	≥ 7.00	Cc1ccc(NC(=O)c2ccnc(C3(C#N)CC3)c2)cc1-c1cccc(-c2cc(NC(=O)C3CC3)ncn2)c1 [Example 203]	≥ 7.00
≥ 7.00	–	≥ 7.00	CC(=O)Nc1cc(-c2cc(-c3cc(NC(=O)c4ccnc(C(F)(F)F)c4)ccc3C)cc(C3CC3)n2)ccn1 [Example 14]	–
≥ 7.00	≥ 7.00	≥ 7.00	CC(=O)Nc1cc(-c2cc(-c3cc(NC(=O)c4ccnc(C(C)(C)C#N)c4)ccc3C)ccn2)ccn1 [Example 19]	–
≥ 7.00	6.30 to 7.00	6.30 to 7.00	CNC(=O)c1cc(-c2ccnc(-c3cc(NC(=O)c4ccnc(C(C)(C)OC)c4)ccc3C)n2)ccn1 [Example 268]	–
≥ 7.00	6.30 to 7.00	6.30 to 7.00	CNC(=O)c1cc(-c2cc(-c3cc(NC(=O)c4ccnc(C(C)(C)C#N)c4)ccc3F)cc(C)n2)ccn1 [Example 259]	–
≥ 7.00	–	6.30 to 7.00	Cc1ccc(NC(=O)c2ccnc(C3(C#N)CC3)c2)cc1-c1cccc(-c2cc(NC(=O)C3CC3)ncn2)n1 [Example 220]	5.00 to 6.00
≥ 7.00	–	6.00 to 6.30	CNC(=O)c1cc(-c2nccc(-c3cc(NC(=O)c4ccnc(C(C)(C)C#N)c4)cnc3C)n2)ccn1 [Example 194]	6.30 to 7.00
≥ 7.00	≥ 7.00	≥ 7.00	Cc1cc(F)c(NC(=O)c2ccnc(C(C)(C)F)c2)cc1-c1cncc(-c2ccnc(NC(=O)C3CC3)c2)n1 [Example 276]	–
≥ 7.00	5.00 to 6.00	6.30 to 7.00	Cc1ncc(NC(=O)c2ccnc(C(C)(C)C#N)c2)cc1-c1cccc(-c2cc(N)ncn2)c1 [Example 207]	–
≥ 7.00	–	6.30 to 7.00	Cc1ncc(NC(=O)c2ccnc(C(C)(C)C#N)c2)cc1-c1ccnc(-c2ccnc(NC(=O)C(C)(C)C#N)c2)c1 [Example 219]	6.30 to 7.00
≥ 7.00	–	6.30 to 7.00	Cc1ccc(NC(=O)c2ccnc(C(C)(C)C#N)c2)cc1-c1cc(-c2cc(NC(=O)C3CC3)ncn2)cc(C2CC2)c1 [Example 216]	≥ 7.00
≥ 7.00	–	≥ 7.00	COC(C)(C)c1cc(C(=O)Nc2ccc(C)c(-c3ccnc(-c4ccnc(NC(=O)C5CC5)c4)n3)c2)ccn1 [Example 190]	≥ 7.00
≥ 7.00	–	≥ 7.00	Cc1cc(-c2cc(NC(=O)c3ccnc(C(F)(F)F)c3)ccc2C)cc(-c2ccnc3c2CC(=O)N3)n1 [Example 20]	–
≥ 7.00	–	≥ 7.00	Cc1cc(F)c(NC(=O)c2cnnc(C3CC3)c2)cc1-c1ccnc(-c2ccnc(NC(=O)C3CC3)c2)n1 [Example 263]	6.00 to 6.30
≥ 7.00	6.30 to 7.00	6.30 to 7.00	CC(C)(C#N)c1cc(C(=O)Nc2ccc(C#N)c(-c3cccc(-c4cc(NC(=O)C5CC5)ncn4)c3)c2)ccn1 [Example 240]	–
≥ 7.00	–	≥ 7.00	Cc1ccc(NC(=O)c2ccnc(C(F)(F)F)c2)cc1-c1ccnc(-c2ccnc(NC(=O)CN(C)C)c2)c1 [Example 17]	–

pIC50 [1]	pIC50 (H2405 cells)	pIC50 [2]	SMILES	pIC50 (WM3928 cells)
≥ 7.00	6.30 to 7.00	5.00 to 6.00	CNC(=O)c1cc(-c2cc(-c3cc(NC(=O)c4ccnc(C(C)(C)C#N)c4)ccc3C#N)ccn2)ccn1 [Example 247]	–
≥ 7.00	–	≥ 7.00	Cc1ccc(NC(=O)c2ccnc(C(C)(C)C#N)c2)cc1-c1ccnc(-c2ccnc(NC(=O)C3CC3)c2)n1 [Example 257]	≥ 7.00
≥ 7.00	–	6.30 to 7.00	Cc1ccc(NC(=O)c2ccnc(C(C)(C)C#N)c2)cc1-c1cccc(-c2cc(NC(=O)C3(F)CC3)ncn2)c1 [Example 200]	≥ 7.00
≥ 7.00	–	5.00 to 6.00	Cc1ncc(NC(=O)c2ccnc(C(C)(C)C#N)c2)cc1-c1cccc(-c2cc(NC(=O)C(C)(C)C)ncn2)c1 [Example 213]	6.30 to 7.00
≥ 7.00	6.30 to 7.00	≥ 7.00	CCOc1cc(-c2cc(NC(=O)c3ccnc(C(F)(F)F)c3)ccc2C)cc(-c2ccnc(NC(=O)C3CC3)c2)n1 [Example 12]	–
≥ 7.00	6.00 to 6.30	6.30 to 7.00	COC(C)(C)C(=O)Nc1cc(-c2cc(-c3cc(NC(=O)c4ccnc(C(C)(C)C#N)c4)ccc3C)ccn2)ccn1 [Example 237]	–
≥ 7.00	–	≥ 7.00	Cc1ccc(NC(=O)c2ccnc(C(F)(F)F)c2)cc1-c1ccnc(-c2ccnc3c2CC(=O)N3)c1 [Example 18]	–
≥ 7.00	–	6.30 to 7.00	CNC(=O)c1cc(-c2cc(-c3cc(NC(=O)c4ccnc(C(C)(C)C#N)c4)ccc3F)ccn2)ccn1 [Example 205]	6.30 to 7.00
≥ 7.00	–	≥ 7.00	Cc1cc(F)c(NC(=O)c2cnnc(C3CC3)c2)cc1-c1nccc(-c2ccnc(NC(=O)C3CC3)c2)n1 [Example 252]	6.00 to 6.30
≥ 7.00	≥ 7.00	≥ 7.00	Cc1ncc(NC(=O)c2ccnc(C(C)C)c2)cc1-c1cccc(-c2ccnc(NC(=O)C3CC3)c2)n1 [Example 269]	–
≥ 7.00	–	≥ 7.00	CNC(=O)c1cc(-c2cc(-c3cc(NC(=O)c4cnnc(C5CC5)c4)ccc3C)ccn2)ccn1 [Example 215]	6.00 to 6.30
≥ 7.00	–	≥ 7.00	Cc1ccc(NC(=O)c2ccnc(C(F)(F)F)c2)cc1-c1cc(-c2ccnc(NC(=O)C3CC3)c2)n(C)c(=O)c1 [Example 13]	–
≥ 7.00	6.30 to 7.00	6.30 to 7.00	CNC(=O)c1cc(-c2ccnc(-c3cc(NC(=O)c4ccnc(C(C)(C)F)c4)ccc3C)n2)ccn1 [Example 246]	–
≥ 7.00	≥ 7.00	≥ 7.00	Cc1cc(-c2cc(NC(=O)C3CC3)ncn2)cc(-c2cc(NC(=O)c3ccnc(C(C)(C)C#N)c3)ccc2C)c1 [Example 212]	–
≥ 7.00	–	≥ 7.00	Cc1cc(F)c(NC(=O)c2ccnc(C3(C#N)CC3)c2)cc1-c1ccnc(-c2ccnc(NC(=O)C3CC3)c2)n1 [Example 262]	≥ 7.00
6.30 to 7.00	–	5.00 to 6.00	Cc1ncc(NC(=O)c2ccnc(C(C)(C)C#N)c2)cc1-c1cccc(-c2cc(NC(=O)C3CC3)ncn2)n1 [Example 226]	5.00 to 6.00
≥ 7.00	–	6.00 to 6.30	Cc1ccc(NC(=O)c2ccnc(C(C)(C)C#N)c2)cc1-c1cccc(-c2cc(NC(=O)C3(C)CC3)ncn2)c1 [Example 197]	≥ 7.00
≥ 7.00	–	6.30 to 7.00	Cc1ccc(NC(=O)c2ccnc(C(C)(C)C#N)c2)cc1-c1cccc(-c2cc(NC(=O)C3CC3)ncn2)n1 [Example 233]	5.00 to 6.00
